Measurements from US11602496B2, “Use of gingerone or derivatives thereof for reducing or delaying the signs of skin ageing” (L'OREAL, priority 2011, dated 2023).
Marks after values point to notes of the source that are not given here.

Tested on: filaggrin expression in normal human keratinocytes (NHEKs)
Assay: Filaggrin expression in normal human keratinocytes in culture (in situ immunolabelling, fluorescence relative to number of nuclei)
Format: cell-based
Conditions: for filaggrin expression, % relative to the control / change in expression of filaggrin by the keratinocytes relative to the control: NHEKs; for filaggrin expression, % relative to the control: 144 hours incubation, n=3, control complete SFM medium = 100; for change in expression of filaggrin by the keratinocytes relative to the control: 144 hours
Procedure: The in vitro effect of gingerone (compound 1, the chemical formula of which is given above) on keratinocyte differentiation is studied. The expression and the location of the marker of filaggrin differentiation are especially studied in keratinocytes in culture which thus makes it possible to evaluate the capacity of this compound to increase the differentiation of these cells. Normal human keratinocytes (NHEKs) were cultured at 37° C. and 5% CO2 for 24 h in a complete SFM medium until moderate confluence was obtained. A complete SFM medium is an SFM culture medium supplemented with pituitary extract (25 μg/ml), EGF (0.25 ng/ml) and gentamicin (25 μg/ml). […] The keratinocytes were then incubated for 144 hours. The treatments were carried out in triplicate (n=3). At the end of the incubation, the culture medium was removed and the cells were […], fixed, permeabilized then labelled with the primary antibody targeted against the filaggrin protein of interest (in situ immunolabelling). […] At the same time, the nuclei of the cells were stained with Hoechst 33258 (bisbenzimide). Image acquisition was carried out using an INCell AnalyzerTM1000 machine. The labels were quantified by measuring the fluorescence intensity of the proteins relative to the number of nuclei identified by the Hoechst product.

`[Ca+2].[Cl-].[Cl-]` [CaCl2, calcium chloride, reference compound] was tested, and the “filaggrin expression, % relative to the control” value (1.5 mM) was 158** % and the “change in expression of filaggrin by the keratinocytes relative to the control” value (calcium chloride treatment (1.5 mM in Table 1)) was “+58%”.
For `CC1=C(/C=C/C(C)=C/C=C/C(C)=C/C(=O)O)C(C)(C)CCC1` [Retinoic acid, retinoic acid, reference compound], the “filaggrin expression, % relative to the control” value (10^−7 M) was 3** % and the “change in expression of filaggrin by the keratinocytes relative to the control” value (retinoic acid treatment (10^−7 M in Table 1)) was −97%.
`COc1cc(CCC(C)=O)ccc1O` [Gingerone] was tested, and the “change in expression of filaggrin by the keratinocytes relative to the control” value (2 μg/ml) was “+33%”, the “filaggrin expression, % relative to the control” value (2 μg/ml) was 133* % and the “change in expression of filaggrin by the keratinocytes relative to the control” value (20 μg/ml) was “+51%”. The “filaggrin expression, % relative to the control” value (20 μg/ml) was 151* % and the “effect on expression of the filaggrin protein (in words)” value (normal human epidermal keratinocytes) was “significantly and dose-dependently increases the expression of the filaggrin protein”.
